Patent US20240109917A1 (ACTELION PHARMACEUTICALS LTD, priority 2020, published 2024)
Where two headings read alike, the source gives them in different places.

Legend:
PDGFRβ = PDGFRβ (Rattus norvegicus (Rat), UniProt Q05030); experiment: PDGFRβ Cellular Assay (PDGFRb P-Y751 HTRF in A10 cells stimulated with PDGF-BB); format: cell-based
Outline: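 Rat A10 cells, plated overnight, were treated with compound for 3 hours, then stimulated with PDGF-BB (working stock 100 ng/mL in 10% FBS medium). After lysis, PDGFRβ P-Y751 was detected by HTRF.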

[1] = molecular target: His6-TEV-PDGFRβ (557-1016) (Homo sapiens (Human), UniProt P09619); experiment: PDGFRβ HTRF Assay; format: biochemical; details: read-out: PDGFR HTRF IC50
Chain of His6-TEV-PDGFRβ (557-1016) (P09619 557-1016): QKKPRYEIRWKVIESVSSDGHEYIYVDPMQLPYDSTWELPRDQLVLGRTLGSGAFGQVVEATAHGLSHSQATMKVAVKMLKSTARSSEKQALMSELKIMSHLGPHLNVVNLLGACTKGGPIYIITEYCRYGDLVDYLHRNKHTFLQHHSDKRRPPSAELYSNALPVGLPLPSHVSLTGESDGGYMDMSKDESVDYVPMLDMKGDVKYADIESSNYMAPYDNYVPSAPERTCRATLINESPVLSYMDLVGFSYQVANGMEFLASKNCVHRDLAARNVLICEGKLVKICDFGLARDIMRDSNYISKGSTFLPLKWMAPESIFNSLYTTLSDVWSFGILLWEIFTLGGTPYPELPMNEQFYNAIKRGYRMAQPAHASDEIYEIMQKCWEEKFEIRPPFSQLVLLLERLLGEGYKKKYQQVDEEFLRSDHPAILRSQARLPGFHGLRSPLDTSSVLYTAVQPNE
Outline: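 Human PDGFRβ (557-1016) pre-incubated with compound for 30 min at RT in pH 7.5 HEPES/MgCl2/EGTA/Brij-35/DTT buffer. Reaction started with ATP and TK-biotin peptide, run 3 h at RT, then quenched with EDTA-containing Eu-cryptate antibody/streptavidin-XL665. HTRF 665/620 nm ratio read after 60 min; percent inhibition relative to DMSO and 10 μM imatinib controls.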

Chain of PDGFRβ (Q05030 32-1097): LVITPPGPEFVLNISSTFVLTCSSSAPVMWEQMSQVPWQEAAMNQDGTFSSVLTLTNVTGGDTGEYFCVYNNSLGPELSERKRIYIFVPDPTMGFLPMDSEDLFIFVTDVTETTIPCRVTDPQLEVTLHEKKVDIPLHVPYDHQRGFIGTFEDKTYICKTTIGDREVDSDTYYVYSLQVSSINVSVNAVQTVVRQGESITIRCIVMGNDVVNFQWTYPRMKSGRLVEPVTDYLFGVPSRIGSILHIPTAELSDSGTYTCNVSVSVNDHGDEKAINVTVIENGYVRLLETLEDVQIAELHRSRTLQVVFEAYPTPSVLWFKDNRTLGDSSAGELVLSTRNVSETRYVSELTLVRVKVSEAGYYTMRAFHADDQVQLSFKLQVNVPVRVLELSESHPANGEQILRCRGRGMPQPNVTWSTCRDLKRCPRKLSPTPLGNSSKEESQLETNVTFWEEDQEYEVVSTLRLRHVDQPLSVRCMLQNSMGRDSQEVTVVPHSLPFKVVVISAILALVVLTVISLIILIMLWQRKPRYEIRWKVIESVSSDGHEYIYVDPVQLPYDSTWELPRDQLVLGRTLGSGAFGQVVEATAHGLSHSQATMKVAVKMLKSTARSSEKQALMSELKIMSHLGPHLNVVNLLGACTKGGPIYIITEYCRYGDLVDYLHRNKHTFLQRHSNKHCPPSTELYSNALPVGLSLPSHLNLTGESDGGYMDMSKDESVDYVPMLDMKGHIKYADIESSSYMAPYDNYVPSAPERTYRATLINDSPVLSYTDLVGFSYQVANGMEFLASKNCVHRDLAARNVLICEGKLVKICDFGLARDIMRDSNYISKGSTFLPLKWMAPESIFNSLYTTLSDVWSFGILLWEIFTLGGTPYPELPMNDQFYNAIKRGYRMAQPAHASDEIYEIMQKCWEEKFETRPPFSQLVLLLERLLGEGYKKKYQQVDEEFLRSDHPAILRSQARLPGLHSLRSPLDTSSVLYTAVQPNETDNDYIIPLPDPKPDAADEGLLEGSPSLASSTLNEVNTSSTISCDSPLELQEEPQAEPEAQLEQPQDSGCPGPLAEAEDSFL

Row | Structure (SMILES) | IC50 (PDGFRβ; read-out: PDGFR Cellular IC50) [nM] | IC50 [1] [nM] | IC50 (PDGFRβ; PDGFR Cellular IC50) [nM]
1 | COc1ncccc1-c1cn2ncc(C(=O)Nc3cc(C(=O)NCCN4CCC[C@@H]4C)cnc3C)c2s1 [Example 301, (S)-2-(2-methoxypyridin-3-yl)-N-(2-methyl-5-((2-(2-methylpyrrolidin-1-yl)ethyl)carbamoyl)pyridin-3-yl)pyrazolo[5,1-b]thiazole-7-carboxamide] | 4.3 | 0.2 | 
2 | CNC(=O)Cn1cc(-c2cn3ncc(C(=O)Nc4cc(NC(=O)CN5CC(C)(C)C5)cnc4C)c3s2)cn1 [Example 279, N-(5-(2-(3,3-dimethylazetidin-1-yl)acetamido)-2-methylpyridin-3-yl)-2-(1-(2-(methylamino)-2-oxoethyl)-1H-pyrazol-4-yl)pyrazolo[5,1-b]thiazole-7-carboxamide] | 134 | 0.4 | 
3 | Cc1ncc(NC(=O)OC[C@@H]2CCCN2C)cc1NC(=O)c1cnn2cc(-c3cccnc3O)sc12 [Example 256, (S)-(1-methylpyrrolidin-2-yl)methyl (5-(2-(2-hydroxypyridin-3-yl)pyrazolo[5,1-b]thiazole-7-carboxamido)-6-methylpyridin-3-yl)carbamate] |  | 0.6 | 1340
4 | Cc1ncc(NC(=O)CN2CC(C)(C)C2)cc1NC(=O)c1cnn2cc(-c3cc[nH]c3)sc12 [Example 285, N-(5-(2-(3,3-dimethylazetidin-1-yl)acetamido)-2-methylpyridin-3-yl)-2-(1H-pyrrol-3-yl)pyrazolo[5,1-b]thiazole-7-carboxamide] | 1.2 | 0.1 | 
5 | Cc1ncc(NC(=O)CN2CCCC23COC3)cc1NC(=O)c1cnn2cc(-c3cnn(C)c3)sc12 [Example 20, N-(5-(2-(2-oxa-5-azaspiro[3.4]octan-5-yl)acetamido)-2-methyl-pyridin-3-yl)-2-(1-methyl-1H-pyrazol-4-yl)pyrazolo[5,1-b]thiazole-7-carboxamide] | 35.9 | 0.7 | 
6 | COc1ncccc1-c1cn2ncc(C(=O)Nc3cc(NC(=O)CN4CCCC4)cnc3C)c2s1 [Example 313, 2-(2-methoxypyridin-3-yl)-N-(2-methyl-5-(2-(pyrrolidin-1-yl)acetamido)pyridin-3-yl)pyrazolo[5,1-b]thiazole-7-carboxamide] | 2.8 | 0.2 | 
7 | Cc1ncc(NC(=O)CN(C)C2CCOCC2)cc1NC(=O)c1cnn2cc(-c3cnn(CC#N)c3)sc12 [Example 299, 2-(1-(cyanomethyl)-1H-pyrazol-4-yl)-N-(2-methyl-5-(2-(methyl(tetrahydro-2H-pyran-4-yl)amino)acetamido)pyridin-3-yl)pyrazolo[5,1-b]thiazole-7-carboxamide] | 102 | 0.5 | 
8 | Cc1ncc(NC(=O)CN2CCc3ccncc3C2)cc1NC(=O)c1cnn2cc(-c3cnn(C)c3)sc12 [Example 23, N-(5-(2-(3,4-dihydro-2,7-naphthyridin-2 (1H)-yl)acetamido)-2-methylpyridin-3-yl)-2-(1-methyl-1H-pyrazol-4-yl)pyrazolo[5,1-b]thiazole-7-carboxamide] |  | 0.7 | 67.7
9 | COc1ncccc1-c1cn2ncc(C(=O)Nc3cc(NC(=O)OCCN4CCCC4(C)C)cnc3C)c2s1 [Example 254, 2-(2,2-dimethylpyrrolidin-1-yl)ethyl (5-(2-(2-methoxypyridin-3-yl)pyrazolo[5,1-b]thiazole-7-carboxamido)-6-methylpyridin-3-yl)carbamate] | 6.2 | 0.2 | 
